{
  "source": "ChEMBL document CHEMBL1201862",
  "about": "“PubChem BioAssay data set” (2004)",
  "key": {"[1]": {"assay": "Fluorescence-based cell-based high throughput dose response assay for inhibitors of the interaction of nucleotide-binding oligomerization domain containing 2 (NOD2) and the receptor-interacting serine-threonine kinase 2 (RIPK2).", "assay_type": "functional", "conditions": "Homo sapiens"}, "[2]": {"assay": "non-specific cell cytotoxicity, dose response, cytotoxicity control for PAX8 inhibitor project, plate reader, dry powder samples (AID 743021)", "assay_type": "functional, cell-based"}, "[3]": {"assay": "HepG2 cell cytotoxicity, dose response, cytotoxicity control for Shn3 inhibitor project, CellTiter-Glo, cherry-picked (AID 624134)", "assay_type": "functional, cell-based"}, "[4]": {"assay": "control 3'UTR Renilla luciferase suppression, dose response, counter-screen for Shn3 inhibitor project, cell-based, Clone20-Shn3RL, cherry-picked (AID 624133)", "assay_type": "functional"}, "[5]": {"assay": "Shn3 3'UTR reporter inhibitors, dose response, cell-based, Clone20 osteoblasts, firefly luciferase, cherry-picked (AID 624132)", "assay_type": "functional"}, "Paired box protein Pax-8": {"target": "Paired box protein Pax-8 (Homo sapiens, UniProt Q06710)", "sequence (Q06710 whole entry)": "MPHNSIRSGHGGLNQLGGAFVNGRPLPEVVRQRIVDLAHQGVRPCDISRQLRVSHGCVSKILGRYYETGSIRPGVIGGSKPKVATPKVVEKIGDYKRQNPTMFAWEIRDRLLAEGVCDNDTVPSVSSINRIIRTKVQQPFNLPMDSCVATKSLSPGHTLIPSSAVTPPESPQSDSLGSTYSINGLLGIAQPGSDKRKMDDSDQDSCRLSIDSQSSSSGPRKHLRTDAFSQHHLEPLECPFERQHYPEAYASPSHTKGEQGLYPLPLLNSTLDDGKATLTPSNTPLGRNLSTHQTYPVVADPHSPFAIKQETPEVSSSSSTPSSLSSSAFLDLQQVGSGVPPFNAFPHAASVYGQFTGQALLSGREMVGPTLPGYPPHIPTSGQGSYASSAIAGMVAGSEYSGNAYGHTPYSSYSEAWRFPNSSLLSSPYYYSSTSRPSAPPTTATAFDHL", "assay": "inhibitors of PAX8-driven TPO luciferase reporter, dose response, RMG-I cells, cherry-pick (AID 687027);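 note: luciferase reporter driven by Pax8 target thyroperoxidase promoter measured by SteadyGlo luminescence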", "assay_type": "functional, cell-based"}, "Beta Lactamase": {"target": "Beta Lactamase (Pseudomonas aeruginosa, UniProt Q932Y6)", "sequence (Q932Y6 whole entry)": "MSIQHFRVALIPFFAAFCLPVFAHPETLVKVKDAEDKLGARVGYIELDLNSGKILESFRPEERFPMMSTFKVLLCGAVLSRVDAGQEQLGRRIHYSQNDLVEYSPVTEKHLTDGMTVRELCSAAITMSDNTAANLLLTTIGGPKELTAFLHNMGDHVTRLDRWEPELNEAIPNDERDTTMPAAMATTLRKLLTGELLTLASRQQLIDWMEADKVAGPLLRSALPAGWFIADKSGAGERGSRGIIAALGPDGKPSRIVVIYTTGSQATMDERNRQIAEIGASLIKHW", "assay": "beta-lactamase reporter inhibitor potency, dose response, artefact control for NOD2-RIPK2 interaction inhibitor project, BLA reporter cells, FRET fluorescence (AID 651552)", "assay_type": "functional, cell-based"}, "[6]": {"assay": "StAR promoter reporter inhibition counter-screen, dose response, counter-screen for LRH-1 inverse agonist project, cell-based, luminescence, luciferase reporter (AID 651969)", "assay_type": "functional"}, "[7]": {"target": "Nuclear receptor subfamily 5 group A member 2 (Homo sapiens, UniProt O00482)", "sequence (O00482 whole entry)": "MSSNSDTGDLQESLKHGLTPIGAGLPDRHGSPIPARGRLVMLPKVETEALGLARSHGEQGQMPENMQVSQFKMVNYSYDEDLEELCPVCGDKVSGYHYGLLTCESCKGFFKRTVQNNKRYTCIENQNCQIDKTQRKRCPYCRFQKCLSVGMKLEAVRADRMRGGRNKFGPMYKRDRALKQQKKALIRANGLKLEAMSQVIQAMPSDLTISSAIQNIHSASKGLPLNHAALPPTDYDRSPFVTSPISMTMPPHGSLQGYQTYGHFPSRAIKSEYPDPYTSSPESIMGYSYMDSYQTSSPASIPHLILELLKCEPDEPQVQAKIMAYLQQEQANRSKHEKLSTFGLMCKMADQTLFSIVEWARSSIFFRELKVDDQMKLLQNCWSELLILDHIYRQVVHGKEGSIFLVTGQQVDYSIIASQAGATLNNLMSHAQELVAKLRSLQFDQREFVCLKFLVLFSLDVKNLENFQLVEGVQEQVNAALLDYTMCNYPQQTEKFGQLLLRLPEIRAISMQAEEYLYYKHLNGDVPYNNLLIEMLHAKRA", "assay_type": "functional, cell-based"}, "Steroidogenic factor 1": {"target": "Steroidogenic factor 1 (Homo sapiens, UniProt Q13285)", "sequence (Q13285 whole entry)": "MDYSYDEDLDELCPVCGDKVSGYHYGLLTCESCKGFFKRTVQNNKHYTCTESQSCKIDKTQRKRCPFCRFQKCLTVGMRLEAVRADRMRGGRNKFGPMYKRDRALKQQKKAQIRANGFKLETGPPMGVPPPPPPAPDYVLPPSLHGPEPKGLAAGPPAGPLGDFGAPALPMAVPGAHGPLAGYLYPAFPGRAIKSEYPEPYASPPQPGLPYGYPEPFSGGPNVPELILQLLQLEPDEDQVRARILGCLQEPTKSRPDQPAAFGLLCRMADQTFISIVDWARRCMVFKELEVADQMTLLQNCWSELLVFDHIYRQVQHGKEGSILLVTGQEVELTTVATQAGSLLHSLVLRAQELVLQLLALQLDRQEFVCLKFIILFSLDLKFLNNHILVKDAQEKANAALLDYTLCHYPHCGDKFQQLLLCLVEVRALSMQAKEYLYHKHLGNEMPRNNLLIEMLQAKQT", "assay": "Counterscreen for inverse agonists of the liver receptor homolog-1 (LRH-1; NR5A2): Luminescence-based cell-based high throughput dose response assay to identify inverse agonists of the Steroidogenic Factor 1 Nuclear Receptor (SF1; NR5A1).", "assay_type": "functional"}, "[8]": {"target": "T1, Apoptotic protease-activating factor 1 (Homo sapiens, UniProt O14727)", "T1 sequence (O14727 whole entry)": "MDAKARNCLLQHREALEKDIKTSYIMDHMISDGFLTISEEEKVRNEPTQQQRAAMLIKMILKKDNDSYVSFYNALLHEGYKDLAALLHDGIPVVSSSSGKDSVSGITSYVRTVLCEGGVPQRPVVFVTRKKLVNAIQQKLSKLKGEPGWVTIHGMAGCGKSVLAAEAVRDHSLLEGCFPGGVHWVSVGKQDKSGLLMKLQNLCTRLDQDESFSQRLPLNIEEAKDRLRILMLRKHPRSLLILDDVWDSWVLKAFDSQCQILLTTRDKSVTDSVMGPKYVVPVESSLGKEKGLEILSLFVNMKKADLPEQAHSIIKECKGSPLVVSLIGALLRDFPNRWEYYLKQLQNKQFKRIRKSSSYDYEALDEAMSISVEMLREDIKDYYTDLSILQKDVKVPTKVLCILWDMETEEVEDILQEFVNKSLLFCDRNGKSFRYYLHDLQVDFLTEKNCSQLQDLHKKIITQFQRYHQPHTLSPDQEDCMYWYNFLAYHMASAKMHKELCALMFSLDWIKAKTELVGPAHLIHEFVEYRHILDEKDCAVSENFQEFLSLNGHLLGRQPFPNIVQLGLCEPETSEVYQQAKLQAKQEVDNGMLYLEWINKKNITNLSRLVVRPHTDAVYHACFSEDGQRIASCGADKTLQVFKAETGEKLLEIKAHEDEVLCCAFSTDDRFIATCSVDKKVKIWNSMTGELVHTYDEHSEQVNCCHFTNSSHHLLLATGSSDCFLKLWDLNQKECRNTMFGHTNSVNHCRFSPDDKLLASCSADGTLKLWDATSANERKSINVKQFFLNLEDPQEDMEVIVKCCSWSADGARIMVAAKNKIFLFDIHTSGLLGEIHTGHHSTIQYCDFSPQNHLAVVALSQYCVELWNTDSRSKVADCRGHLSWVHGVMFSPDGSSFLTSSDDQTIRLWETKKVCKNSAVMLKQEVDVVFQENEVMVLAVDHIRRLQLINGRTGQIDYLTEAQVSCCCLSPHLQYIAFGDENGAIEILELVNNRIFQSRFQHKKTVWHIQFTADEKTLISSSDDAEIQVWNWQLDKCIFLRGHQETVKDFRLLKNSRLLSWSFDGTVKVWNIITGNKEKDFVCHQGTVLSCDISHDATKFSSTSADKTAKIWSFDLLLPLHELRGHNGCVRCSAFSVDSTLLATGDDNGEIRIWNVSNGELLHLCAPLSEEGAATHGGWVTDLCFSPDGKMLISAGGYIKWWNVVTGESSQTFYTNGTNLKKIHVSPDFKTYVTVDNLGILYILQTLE", "assay": "SAR analysis of small molecule Activators of Apaf-1 in a Fluorescent assay.", "assay_type": "functional", "conditions": "read-out: EC50_Mean"}, "[9]": {"assay": "A2780 ovarian cancer cell cytotoxicity, dose response, cytotoxicity control, plate reader, dry powder samples (AID 743046)", "assay_type": "functional, cell-based"}, "[10]": {"assay": "lymphoblastoid cell cytotoxicity, dose response, cytotoxicity control, plate reader, dry powder, set 2 (AID 624367)", "assay_type": "functional"}, "[11]": {"assay": "inhibitors of TNFa-stimulated NF-kB luciferase reporter, dose response, selectivity assay for EBV LMP1 NF-kB inhibitor project, HEK293 LMP1 reporter cells, dry powder, set 2 (AID 624369)", "assay_type": "functional"}, "[12]": {"target": "Matrix metalloproteinase-14 (Homo sapiens, UniProt P50281)", "assay": "Dose Response confirmation of uHTS hits for a small molecule inhibitors of MT1-MMP activation in a fluorescence assay set 1.", "assay_type": "functional"}, "[13]": {"target": "ADP-ribosylation factor GTPase-activating protein 1 (Rattus norvegicus, UniProt Q62848)", "sequence (Q62848 whole entry)": "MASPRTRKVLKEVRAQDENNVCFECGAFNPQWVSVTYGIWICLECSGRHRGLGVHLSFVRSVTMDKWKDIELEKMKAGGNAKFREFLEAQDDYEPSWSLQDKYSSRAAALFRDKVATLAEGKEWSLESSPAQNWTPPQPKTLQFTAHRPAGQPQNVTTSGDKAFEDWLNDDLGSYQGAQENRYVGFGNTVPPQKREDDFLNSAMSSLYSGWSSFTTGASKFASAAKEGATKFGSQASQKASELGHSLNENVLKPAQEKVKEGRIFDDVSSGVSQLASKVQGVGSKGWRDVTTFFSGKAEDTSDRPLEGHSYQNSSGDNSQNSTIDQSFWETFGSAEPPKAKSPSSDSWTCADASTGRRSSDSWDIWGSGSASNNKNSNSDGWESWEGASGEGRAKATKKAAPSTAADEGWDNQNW", "assay": "Fluorescence polarization-based biochemical high throughput dose response screening assay to identify inhibitors of ADP-ribosylation factor GTPase activating protein 1 (ARFGAP1).", "assay_type": "functional"}},
  "note": "The source made the active and inactive calls.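 Throughout, for EC50 Mean: caspase-3 cleavage of fluorogenic Rh110 DEVD substrate downstream of apoptosome activation.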",
  "data": [
    {"smiles": "C=C1C(=O)C23C(O)C1CCC2C12CCCC(C)(COC(C)=O)C1C(O)C3(O)OC2", "note": "(configuration not stated)", "values": [
      {"measurement": "IC50", "setting": "[1]", "result": "1.19 µM (active)"},
      {"measurement": "AC50", "setting": "[2]", "result": "28.9 µM (active)"},
      {"measurement": "AC50", "setting": "[3]", "result": "11.8 µM (active)"},
      {"measurement": "AC50", "setting": "[4]", "result": "3.84 µM (active)"},
      {"measurement": "AC50", "setting": "[5]", "result": "0.771 µM (active)"},
      {"measurement": "AC50", "setting": "Paired box protein Pax-8", "result": "1.86 µM (active)"},
      {"measurement": "IC50", "setting": "Beta Lactamase", "result": "22.1 µM (inactive)"}
    ]},
    {"smiles": "COc1ccc(OCCNC(=O)C2(C)CCN2Cc2ccc3ccccc3c2)cc1", "note": "(configuration not stated)", "values": [
      {"measurement": "IC50", "setting": "[6]", "result": "35.9 µM (inactive)"},
      {"measurement": "IC50", "setting": "[7]", "result": "9.8 µM (active)"},
      {"measurement": "IC50", "setting": "Steroidogenic factor 1", "result": "6.42 µM (active)"}
    ]},
    {"smiles": "O=C(NCCCN1CCOCC1)C1CC(c2ccc(F)cc2)=NO1", "note": "(configuration not stated)", "values": [
      {"measurement": "EC50", "setting": "[8]", "result": "> 100 µM (inactive)"}
    ]},
    {"smiles": "O=C(Nc1ccc(C(F)(F)F)cc1)Nc1ccc2c(c1)[C@H]1C[C@H](CC(=O)N3CCc4ccccc4C3)O[C@H](CO)[C@H]1O2", "values": [
      {"measurement": "AC50", "setting": "[9]", "result": "57.4 µM (active)"},
      {"measurement": "AC50", "setting": "Paired box protein Pax-8", "result": "7.26 µM (active)"},
      {"measurement": "AbsAC35", "setting": "[10]", "result": 42.44, "unit": "µM"},
      {"measurement": "AbsAC35", "setting": "[11]", "result": 66.25, "unit": "µM"}
    ]},
    {"smiles": "CCOC(=O)C1=C(C)N=c2s/c(=C\\c3ccc(OC(C)=O)c(OCC)c3)c(=O)n2C1/C=C/c1ccccc1", "note": "(configuration not stated)", "values": [
      {"measurement": "IC50", "setting": "[12]", "result": "6 µM (active)"}
    ]},
    {"smiles": "O/N=C\\c1ccc2noc(-c3ccc(Cl)cc3)c2c1", "values": [
      {"measurement": "IC50", "setting": "[13]", "result": "50.7 µM (inactive)"}
    ]}
  ]
}
